According to patent US10093713B2, “GIP-GLP-1 dual agonist compounds and methods” (priority 2013, dated 2018):
Like-named read-outs stand apart in the source and are kept apart here. *1 amine or outer side, *2 acyl side, *3 side chain or, on linkers, in order; H or OH if unused. Where a SMILES comes first, the peptide text is derived from it. Side-chain parts run from the residue outwards. [ ]: non-standard residue; d: D form. The star is where a group is joined. X1 = O=C(O)CCCCCCCCCCCCCCCCCCC(=O)N1CCN(CC(=O)*)CC1; C20 diacid = O=C(O)CCCCCCCCCCCCCCCCCCC(=O)*; C18 diacid = O=C(O)CCCCCCCCCCCCCCCCC(=O)*; γGlu = O=C(O)[C@H](CCC(=O)[*:2])N[*:1]; AEEA = NCCOCCOCC(=O)O; Aib = CC(C)(N)C(=O)O

Legend:
human GIP R = molecular target: T1, human GIP R (Homo sapiens, UniProt P48546); test: Human GIP receptor (GIP R) activity assay, cAMP induction (AlphaScreen) in HEK293 cells; type: cell-based; settings: read-out: hGIP-R cAMP EC50 average value
T1 construct: expressed in transfected cells
T1 sequence (P48546 22-466): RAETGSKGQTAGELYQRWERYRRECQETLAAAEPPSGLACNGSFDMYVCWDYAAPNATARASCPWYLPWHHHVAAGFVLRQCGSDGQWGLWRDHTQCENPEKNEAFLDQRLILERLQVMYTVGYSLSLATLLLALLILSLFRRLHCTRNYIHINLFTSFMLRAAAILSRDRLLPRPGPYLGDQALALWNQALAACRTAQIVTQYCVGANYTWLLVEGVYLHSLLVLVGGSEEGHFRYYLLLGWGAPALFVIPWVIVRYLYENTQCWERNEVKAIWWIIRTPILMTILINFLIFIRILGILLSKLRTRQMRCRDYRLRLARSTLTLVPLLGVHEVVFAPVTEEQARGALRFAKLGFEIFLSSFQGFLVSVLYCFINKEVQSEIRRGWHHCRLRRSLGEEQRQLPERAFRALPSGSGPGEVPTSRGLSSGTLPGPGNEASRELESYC
In short: (§1)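 Stable HEK293 clones expressing human GIP R or GLP-1 R, seeded 1 day before; cells washed in Tyrode's buffer (10 mM HEPES, pH 7.4), stimulated, then lysed. cAMP measured by AlphaScreen bead competition (1 h, room temperature, dark). EC50 = concentration giving half-maximal cAMP elevation, from curves of absolute cAMP (nM) vs log concentration.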

human GLP-1 R = molecular target: T2, human GLP-1 R (Homo sapiens, UniProt P43220); test: Human GLP-1 receptor (GLP-1 R) activity assay, cAMP induction (AlphaScreen) in HEK293 cells; type: cell-based
T2 construct: expressed in transfected cells
In short: as §1

[1] = Table 3, most comprehensive data
[2] = Table 3, most comprehensive data, read-out: hGLP-1-R cAMP EC50 average value
[3] = Table 2, HEK293 cells expressing human GLP-1 R, read-out: hGLP1-R cAMP EC50 average value

T2 sequence (P43220 24-463): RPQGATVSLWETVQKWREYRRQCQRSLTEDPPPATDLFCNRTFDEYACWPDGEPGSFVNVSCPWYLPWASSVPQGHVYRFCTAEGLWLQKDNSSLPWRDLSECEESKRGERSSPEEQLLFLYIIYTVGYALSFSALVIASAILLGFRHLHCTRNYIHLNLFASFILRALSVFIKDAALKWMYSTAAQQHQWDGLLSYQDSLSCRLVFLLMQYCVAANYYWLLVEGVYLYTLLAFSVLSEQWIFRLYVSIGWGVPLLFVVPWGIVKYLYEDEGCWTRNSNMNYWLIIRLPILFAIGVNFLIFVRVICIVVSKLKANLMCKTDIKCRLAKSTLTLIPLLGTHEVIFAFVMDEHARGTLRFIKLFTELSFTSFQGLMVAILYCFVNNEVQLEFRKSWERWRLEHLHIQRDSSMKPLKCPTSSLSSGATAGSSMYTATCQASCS

| EC50 (human GIP R; Table 2a, secondary assay study) [nM] | EC50 (human GLP-1 R; Table 2a, secondary assay study, read-out: hGLP1-R cAMP EC50 average value) [nM] | EC50 (human GIP R; Table 2, HEK293 cells expressing human GIP R) [nM] | EC50 (human GLP-1 R; [3]) [nM] | SMILES | EC50 (human GIP R; [1]) [nM] | EC50 (human GLP-1 R; [2]) [nM] |
| --- | --- | --- | --- | --- | --- | --- |
| 0.011 | 0.006 | – | – | CC[C@H](C)[C@H](NC(=O)[C@H](CO)NC(=O)[C@H](CC(C)C)NC(=O)[C@H](CC(=O)O)NC(=O)[C@H](CO)NC(=O)[C@@H](NC(=O)[C@H](Cc1ccccc1)NC(=O)[C@@H](NC(=O)CNC(=O)[C@H](CCC(=O)O)NC(=O)C(C)(C)NC(=O)[C@@H](N)Cc1ccc(O)cc1)[C@@H](C)O)[C@@H](C)O)C(=O)N[C@@H](C)C(=O)N[C@@H](CC(C)C)C(=O)N[C@@H](CCC(=O)O)C(=O)N[C@@H](CCCCN)C(=O)N[C@@H](CCCCNC(=O)COCCOCCNC(=O)COCCOCCNC(=O)CC[C@H](NC(=O)CCCCCCCCCCCCCCCCC(=O)O)C(=O)O)C(=O)N[C@@H](C)C(=O)N[C@@H](CCC(N)=O)C(=O)N[C@@H](CCCNC(=N)N)C(=O)N[C@@H](C)C(=O)N[C@@H](Cc1ccccc1)C(=O)N[C@H](C(=O)N[C@@H](CCC(=O)O)C(=O)N[C@@H](Cc1c[nH]c2ccccc12)C(=O)N[C@@H](CC(C)C)C(=O)N[C@@H](CC(C)C)C(=O)N[C@@H](C)C(=O)N[C@@H](CCC(N)=O)C(=O)N[C@@H](CCCCN)C(N)=O)C(C)C [Compound 18] (H-Y[Aib]EGTFTSDLSIALEKK([AEEA-AEEA-γGlu-C18 diacid])AQRAFVEWLLAQK-NH2) | – | – |
| – | – | 0.0068 | 0.011 | CC[C@H](C)[C@H](NC(=O)[C@H](CO)NC(=O)[C@H](Cc1ccc(O)cc1)NC(=O)[C@H](CC(=O)O)NC(=O)[C@H](CO)NC(=O)[C@@H](NC(=O)[C@H](Cc1ccccc1)NC(=O)[C@@H](NC(=O)CNC(=O)[C@H](CCC(=O)O)NC(=O)C(C)(C)NC(=O)[C@@H](N)Cc1ccc(O)cc1)[C@@H](C)O)[C@@H](C)O)C(=O)N[C@@H](C)C(=O)N[C@@H](CC(C)C)C(=O)N[C@@H](CC(=O)O)C(=O)N[C@@H](CCCCN)C(=O)N[C@@H](CCCCNC(=O)COCCOCCNC(=O)COCCOCCNC(=O)CC[C@H](NC(=O)CCCCCCCCCCCCCCCCC(=O)O)C(=O)O)C(=O)N[C@@H](C)C(=O)N[C@@H](CCC(N)=O)C(=O)N[C@@H](CCCNC(=N)N)C(=O)N[C@@H](C)C(=O)N[C@@H](Cc1ccccc1)C(=O)N[C@H](C(=O)N[C@@H](CCC(=O)O)C(=O)N[C@@H](Cc1c[nH]c2ccccc12)C(=O)N[C@@H](CC(C)C)C(=O)N[C@H](C(=O)N[C@@H](C)C(=O)NC(C)(C)C(=O)N[C@@H](CCCCN)C(N)=O)C(C)C)C(C)C [Compound 21] (H-Y[Aib]EGTFTSDYSIALDKK([AEEA-AEEA-γGlu-C18 diacid])AQRAFVEWLVA[Aib]K-NH2) | 0.007 | – |
| – | – | – | 0.014 | CC[C@H](C)[C@H](NC(=O)[C@H](CO)NC(=O)[C@H](CC(C)C)NC(=O)[C@H](CC(=O)O)NC(=O)[C@H](CO)NC(=O)[C@@H](NC(=O)[C@H](Cc1ccccc1)NC(=O)[C@@H](NC(=O)CNC(=O)[C@H](CCC(=O)O)NC(=O)C(C)(C)NC(=O)[C@@H](N)Cc1ccc(O)cc1)[C@@H](C)O)[C@@H](C)O)C(=O)N[C@@H](C)C(=O)N[C@@H](CC(C)C)C(=O)N[C@@H](CCC(=O)O)C(=O)N[C@@H](CCCCN)C(=O)N[C@@H](CCCCNC(=O)COCCOCCNC(=O)COCCOCCNC(=O)CC[C@H](NC(=O)CCCCCCCCCCCCCCCCCCC(=O)O)C(=O)O)C(=O)N[C@@H](C)C(=O)N[C@@H](CCC(N)=O)C(=O)N[C@@H](CCCNC(=N)N)C(=O)N[C@@H](C)C(=O)N[C@@H](Cc1ccccc1)C(=O)N[C@H](C(=O)N[C@@H](CCC(=O)O)C(=O)N[C@@H](Cc1c[nH]c2ccccc12)C(=O)N[C@@H](CC(C)C)C(=O)N[C@@H](CCC(=O)O)C(=O)N[C@@H](C)C(=O)N[C@@H](CCC(N)=O)C(=O)N[C@@H](CCCCN)C(N)=O)C(C)C [Compound 26] (H-Y[Aib]EGTFTSDLSIALEKK([AEEA-AEEA-γGlu-C20 diacid])AQRAFVEWLEAQK-NH2) | 0.58 | – |

The next lines start with the compound.

| SMILES | EC50 (human GIP R; Table 2a, secondary assay study) [nM] | EC50 (human GLP-1 R; Table 2a, secondary assay study, read-out: hGLP1-R cAMP EC50 average value) [nM] | EC50 (human GIP R; Table 2, HEK293 cells expressing human GIP R) [nM] | EC50 (human GLP-1 R; [3]) [nM] | EC50 (human GIP R; [1]) [nM] | EC50 (human GLP-1 R; [2]) [nM] |
| --- | --- | --- | --- | --- | --- | --- |
| CC[C@H](C)[C@H](NC(=O)[C@H](CO)NC(=O)[C@H](Cc1ccc(O)cc1)NC(=O)[C@H](CC(=O)O)NC(=O)[C@H](CO)NC(=O)[C@@H](NC(=O)[C@H](Cc1ccccc1)NC(=O)[C@@H](NC(=O)CNC(=O)[C@H](CCC(=O)O)NC(=O)C(C)(C)NC(=O)[C@@H](N)Cc1ccc(O)cc1)[C@@H](C)O)[C@@H](C)O)C(=O)N[C@@H](C)C(=O)N[C@@H](CC(C)C)C(=O)N[C@@H](CC(=O)O)C(=O)N[C@@H](CCCCN)C(=O)N[C@@H](CCCCNC(=O)COCCOCCNC(=O)COCCOCCNC(=O)CN1CCN(C(=O)CCCCCCCCCCCCCCCCCCC(=O)O)CC1)C(=O)N[C@@H](C)C(=O)N[C@@H](CCC(N)=O)C(=O)N[C@@H](CCCNC(=N)N)C(=O)N[C@@H](C)C(=O)N[C@@H](Cc1ccccc1)C(=O)N[C@H](C(=O)N[C@@H](CCC(=O)O)C(=O)N[C@@H](Cc1c[nH]c2ccccc12)C(=O)N[C@@H](CC(C)C)C(=O)N[C@@H](CC(C)C)C(=O)N[C@@H](C)C(=O)N[C@@H](CCC(N)=O)C(=O)NCC(=O)N1CCC[C@H]1C(=O)N[C@@H](CO)C(=O)N[C@@H](CO)C(=O)NCC(=O)N[C@@H](C)C(=O)N1CCC[C@H]1C(=O)N1CCC[C@H]1C(=O)N1CCC[C@H]1C(=O)N[C@@H](CO)C(N)=O)C(C)C [Compound 52] (H-Y[Aib]EGTFTSDYSIALDKK([AEEA-AEEA-X1])AQRAFVEWLLAQGPSSGAPPPS-NH2) | – | – | – | – | 0.01 | 0.012 |
| CC[C@H](C)[C@H](NC(=O)[C@H](CO)NC(=O)[C@H](Cc1ccc(O)cc1)NC(=O)[C@H](CC(=O)O)NC(=O)[C@H](CO)NC(=O)[C@@H](NC(=O)[C@H](Cc1ccccc1)NC(=O)[C@@H](NC(=O)CNC(=O)[C@H](CCC(=O)O)NC(=O)C(C)(C)NC(=O)[C@@H](N)Cc1ccc(O)cc1)[C@@H](C)O)[C@@H](C)O)C(=O)N[C@@H](C)C(=O)N[C@@H](CC(C)C)C(=O)N[C@@H](CC(=O)O)C(=O)N[C@@H](CCCCN)C(=O)N[C@@H](CCCCNC(=O)COCCOCCNC(=O)COCCOCCNC(=O)CC[C@H](NC(=O)CCCCCCCCCCCCCCCCCCC(=O)O)C(=O)O)C(=O)N[C@@H](C)C(=O)N[C@@H](CCC(N)=O)C(=O)N[C@@H](CCCNC(=N)N)C(=O)N[C@@H](C)C(=O)N[C@@H](Cc1ccccc1)C(=O)N[C@H](C(=O)N[C@@H](CCC(=O)O)C(=O)N[C@@H](Cc1c[nH]c2ccccc12)C(=O)N[C@@H](CC(C)C)C(=O)N[C@@H](CC(C)C)C(=O)N[C@@H](C)C(=O)N[C@@H](C)C(=O)N1CCC[C@H]1C(=O)N[C@@H](CO)C(=O)N[C@@H](CO)C(=O)NCC(=O)N[C@@H](C)C(=O)N1CCC[C@H]1C(=O)N1CCC[C@H]1C(=O)N1CCC[C@H]1C(=O)N[C@@H](CO)C(N)=O)C(C)C [Compound 40] (H-Y[Aib]EGTFTSDYSIALDKK([AEEA-AEEA-γGlu-C20 diacid])AQRAFVEWLLAAPSSGAPPPS-NH2) | – | – | – | – | 0.023 | 0.021 |
